Results: ChEMBL document CHEMBL3414487, “Synthesis and biological activity of salinomycin conjugates with floxuridine” (Eur J Med Chem, 2015)
In brackets after ≈: the same amount, converted by molar mass.

What was measured:
[1] = Antiproliferative activity against human HL60 cells assessed as growth inhibition after 72 hrs by MTT assay; assay type: functional, cell-based; settings: HL-60, 72 h
[2] = Antiproliferative activity against human vincristine-resistant HL60/Vinc cells assessed as growth inhibition after 72 hrs by MTT assay; assay type: functional
LoVo [3] = experiment: Antiproliferative activity against human LoVo cells assessed as growth inhibition after 72 hrs by SRB method; assay type: functional, cell-based; settings: Homo sapiens, LoVo, 72 h
[4] = Antiproliferative activity against human doxorubicin-resistant LoVo/DX cells assessed as growth inhibition after 72 hrs by SRB method; assay type: functional, cell-based
HT-29 [5] = experiment: Antiproliferative activity against human HT-29 cells assessed as growth inhibition after 72 hrs by SRB method; assay type: functional, cell-based; settings: Homo sapiens, HT-29, 72 h
[6] = Antiproliferative activity against human LS180 cells assessed as growth inhibition after 72 hrs by SRB method; assay type: functional, cell-based; settings: Homo sapiens, LS180, 72 h
[7] = Antiproliferative activity against human SW707 cells assessed as growth inhibition after 72 hrs by SRB method; assay type: functional, cell-based; settings: Homo sapiens, SW707, 72 h
BALB/3T3 = experiment: Antiproliferative activity against mouse BALB/3T3 cells assessed as growth inhibition after 72 hrs by SRB method; assay type: cell-based; settings: BALB/3T3, 72 h
HL-60 [8] = experiment: Selectivity index, ratio of IC50 for mouse BALB/3T3 cells to IC50 for human HL60 cells; assay type: functional
[9] = Selectivity index, ratio of IC50 for mouse BALB/3T3 cells to IC50 for human HL60/Vinc cells; assay type: functional
LoVo [10] = experiment: Selectivity index, ratio of IC50 for mouse BALB/3T3 cells to IC50 for human LoVo cells; assay type: functional
[11] = Selectivity index, ratio of IC50 for mouse BALB/3T3 cells to IC50 for human LoVo/DX cells; assay type: functional
HT-29 [12] = experiment: Selectivity index, ratio of IC50 for mouse BALB/3T3 cells to IC50 for human HT-29 cells; assay type: functional
[13] = Selectivity index, ratio of IC50 for mouse BALB/3T3 cells to IC50 for human LS180 cells; assay type: functional
[14] = Selectivity index, ratio of IC50 for mouse BALB/3T3 cells to IC50 for human SW707 cells; assay type: functional
HL-60 [15] = experiment: Resistance index, ratio of IC50 for human HL60/Vinc cells to IC50 for human HL60 cells
LoVo [16] = experiment: Resistance index, ratio of IC50 for human LoVo/DX cells to IC50 for human LoVo cells
Staphylococcus aureus [17] = experiment: Antimicrobial activity against Staphylococcus aureus […] 4163 after 18 hrs by two-fold serial microdilution method; assay type: functional
Staphylococcus aureus [18] = experiment: Antimicrobial activity against Staphylococcus aureus ATCC 25923 after 18 hrs by two-fold serial microdilution method; assay type: functional; settings: ATCC 25923, 18 h
Staphylococcus aureus [19] = experiment: Antimicrobial activity against Staphylococcus aureus ATCC 6538 after 18 hrs by two-fold serial microdilution method; assay type: functional; settings: ATCC 6538, 18 h
Staphylococcus aureus [20] = experiment: Antimicrobial activity against Staphylococcus aureus ATCC 29213 after 18 hrs by two-fold serial microdilution method; assay type: functional; settings: ATCC 29213, 18 h
[21] = system: Staphylococcus epidermidis; experiment: Antimicrobial activity against Staphylococcus epidermidis ATCC 12228 after 18 hrs by two-fold serial microdilution method; assay type: functional; settings: ATCC 12228, 18 h
[22] = system: Staphylococcus epidermidis; experiment: Antimicrobial activity against Staphylococcus epidermidis ATCC 35984 after 18 hrs by two-fold serial microdilution method; assay type: functional; settings: ATCC 35984, 18 h
Staphylococcus aureus [23] = experiment: Antimicrobial activity against methicillin-resistant Staphylococcus aureus 452/11 after 18 hrs by two-fold serial microdilution method; assay type: functional; settings: 452/11, 18 h
Staphylococcus aureus [24] = experiment: Antimicrobial activity against methicillin-resistant Staphylococcus aureus 456/11 after 18 hrs by two-fold serial microdilution method; assay type: functional; settings: 456/11, 18 h
Staphylococcus aureus [25] = experiment: Antimicrobial activity against methicillin-resistant Staphylococcus aureus 462/11 after 18 hrs by two-fold serial microdilution method; assay type: functional; settings: 462/11, 18 h
Staphylococcus aureus [26] = experiment: Antimicrobial activity against methicillin-resistant Staphylococcus aureus 514/11 after 18 hrs by two-fold serial microdilution method; assay type: functional; settings: 514/11, 18 h
Staphylococcus aureus [27] = experiment: Antimicrobial activity against methicillin-resistant Staphylococcus aureus 522/12 after 18 hrs by two-fold serial microdilution method; assay type: functional; settings: 522/12, 18 h
Staphylococcus aureus [28] = experiment: Antimicrobial activity against methicillin-resistant Staphylococcus aureus 537/12 after 18 hrs by two-fold serial microdilution method; assay type: functional; settings: 537/12, 18 h
Staphylococcus aureus [29] = experiment: Antimicrobial activity against methicillin-resistant Staphylococcus aureus 572/12 after 18 hrs by two-fold serial microdilution method; assay type: functional; settings: 572/12, 18 h
Staphylococcus aureus [30] = experiment: Antimicrobial activity against methicillin-resistant Staphylococcus aureus 573/12 after 18 hrs by two-fold serial microdilution method; assay type: functional; settings: 573/12, 18 h
Staphylococcus aureus [31] = experiment: Antimicrobial activity against methicillin-resistant Staphylococcus aureus 585/12 after 18 hrs by two-fold serial microdilution method; assay type: functional; settings: 585/12, 18 h
Staphylococcus aureus [32] = experiment: Antimicrobial activity against methicillin-resistant Staphylococcus aureus 586/12 after 18 hrs by two-fold serial microdilution method; assay type: functional; settings: 586/12, 18 h
[33] = system: Staphylococcus epidermidis; experiment: Antimicrobial activity against methicillin-resistant Staphylococcus epidermidis 459/11 after 18 hrs by two-fold serial microdilution method; assay type: functional; settings: 459/11, 18 h
[34] = system: Staphylococcus epidermidis; experiment: Antimicrobial activity against methicillin-resistant Staphylococcus epidermidis 460/11 after 18 hrs by two-fold serial microdilution method; assay type: functional; settings: 460/11, 18 h
[35] = system: Staphylococcus epidermidis; experiment: Antimicrobial activity against methicillin-resistant Staphylococcus epidermidis 461/11 after 18 hrs by two-fold serial microdilution method; assay type: functional; settings: 461/11, 18 h
[36] = system: Staphylococcus epidermidis; experiment: Antimicrobial activity against methicillin-resistant Staphylococcus epidermidis 466/11 after 18 hrs by two-fold serial microdilution method; assay type: functional; settings: 466/11, 18 h
[37] = system: Staphylococcus epidermidis; experiment: Antimicrobial activity against methicillin-resistant Staphylococcus epidermidis 467/11 after 18 hrs by two-fold serial microdilution method; assay type: functional; settings: 467/11, 18 h
[38] = system: Staphylococcus epidermidis; experiment: Antimicrobial activity against methicillin-resistant Staphylococcus epidermidis 468/11 after 18 hrs by two-fold serial microdilution method; assay type: functional; settings: 468/11, 18 h
[39] = system: Staphylococcus epidermidis; experiment: Antimicrobial activity against methicillin-resistant Staphylococcus epidermidis 469/11 after 18 hrs by two-fold serial microdilution method; assay type: functional; settings: 469/11, 18 h
[40] = system: Staphylococcus epidermidis; experiment: Antimicrobial activity against methicillin-resistant Staphylococcus epidermidis 470/11 after 18 hrs by two-fold serial microdilution method; assay type: functional; settings: 470/11, 18 h
[41] = system: Staphylococcus epidermidis; experiment: Antimicrobial activity against methicillin-resistant Staphylococcus epidermidis 488/11 after 18 hrs by two-fold serial microdilution method; assay type: functional; settings: 488/11, 18 h
[42] = system: Staphylococcus epidermidis; experiment: Antimicrobial activity against methicillin-resistant Staphylococcus epidermidis 489/11 after 18 hrs by two-fold serial microdilution method; assay type: functional; settings: 489/11, 18 h

## CC[C@@H](C(=O)[C@@H](C)[C@@H](O)[C@H](C)[C@@H]1O[C@@H]([C@@H](CC)C(=O)OC[C@H]2O[C@@H](n3cc(F)c(=O)[nH]c3=O)C[C@@H]2O)CC[C@@H]1C)[C@H]1O[C@]2(C=C[C@@H](O)[C@]3(CC[C@@](C)([C@H]4CC[C@](O)(CC)[C@H](C)O4)O3)O2)[C@H](C)C[C@@H]1C
[1]
  IC50: 0.37 µM
[2]; Homo sapiens, HL60/vinc, 72 h
  IC50: 2.82 µM
LoVo [3]
  IC50: 1.46 µM
[4]
  IC50: 0.93 µM
HT-29 [5]
  IC50: 2.02 µM
[6]
  IC50: 2.25 µM
[7]
  IC50: 1.99 µM
BALB/3T3
  IC50: 32.3 µM
HL-60 [8]
  Selectivity Index: 87.24
[9]
  Selectivity Index: 11.45
LoVo [10]
  Selectivity Index: 22.11
[11]
  Selectivity Index: 34.71
HT-29 [12]
  Selectivity Index: 15.98
[13]
  Selectivity Index: 14.35
[14]
  Selectivity Index: 16.22
HL-60 [15]
  Ratio IC50: 7.62
LoVo [16]
  Ratio IC50: 0.64
Staphylococcus aureus [17]
  MIC: 8.17 µM (≈ 8 µg/mL)
Staphylococcus aureus [18]
  MIC: 8.17 µM (≈ 8 µg/mL)
Staphylococcus aureus [19]
  MIC: 4.09 µM (≈ 4 µg/mL)
Staphylococcus aureus [20]
  MIC: 4.09 µM (≈ 4 µg/mL)
[21]
  MIC: 4.09 µM (≈ 4 µg/mL)
[22]
  MIC: 4.09 µM (≈ 4 µg/mL)
Staphylococcus aureus [23]
  MIC: 32.7 µM (≈ 32 µg/mL)
Staphylococcus aureus [24]
  MIC: 32.7 µM (≈ 32 µg/mL)
Staphylococcus aureus [25]
  MIC: 32.7 µM (≈ 32 µg/mL)
Staphylococcus aureus [26]
  MIC: 8.17 µM (≈ 8 µg/mL)
Staphylococcus aureus [27]
  MIC: 8.17 µM (≈ 8 µg/mL)
Staphylococcus aureus [28]
  MIC: 8.17 µM (≈ 8 µg/mL)
Staphylococcus aureus [29]
  MIC: 8.17 µM (≈ 8 µg/mL)
Staphylococcus aureus [30]
  MIC: 8.17 µM (≈ 8 µg/mL)
Staphylococcus aureus [31]
  MIC: 16.3 µM (≈ 16 µg/mL)
Staphylococcus aureus [32]
  MIC: 8.17 µM (≈ 8 µg/mL)
[33]
  MIC: 32.7 µM (≈ 32 µg/mL)
[34]
  MIC: 32.7 µM (≈ 32 µg/mL)
[35]
  MIC: 32.7 µM (≈ 32 µg/mL)
[36]
  MIC: 32.7 µM (≈ 32 µg/mL)
[37]
  MIC: 32.7 µM (≈ 32 µg/mL)
[38]
  MIC: 32.7 µM (≈ 32 µg/mL)
[39]
  MIC: 32.7 µM (≈ 32 µg/mL)
[40]
  MIC: 8.17 µM (≈ 8 µg/mL)
[41]
  MIC: 32.7 µM (≈ 32 µg/mL)
[42]
  MIC: 8.17 µM (≈ 8 µg/mL)

## CC[C@@H](C(=O)[C@@H](C)[C@@H](O)[C@H](C)[C@@H]1O[C@@H]([C@@H](CC)C(=O)NCc2cn([C@H]3C[C@H](n4cc(F)c(=O)[nH]c4=O)O[C@@H]3CO)nn2)CC[C@@H]1C)[C@H]1O[C@]2(C=C[C@@H](O)[C@]3(CC[C@@](C)([C@H]4CC[C@](O)(CC)[C@H](C)O4)O3)O2)[C@H](C)C[C@@H]1C
[1]
  IC50: 28.7 µM
[2]
  inhibition (INH): 20%
LoVo [3]
  IC50: 41.2 µM
[4]
  IC50: 70.4 µM
HT-29 [5]
  IC50: 30.1 µM
[6]
  IC50: 32.8 µM
[7]
  IC50: 35 µM
BALB/3T3
  IC50: 29.6 µM
HL-60 [8]
  Selectivity Index: 1.03
LoVo [10]
  Selectivity Index: 0.72
[11]
  Selectivity Index: 0.42
HT-29 [12]
  Selectivity Index: 0.98
[13]
  Selectivity Index: 0.9
[14]
  Selectivity Index: 0.85
LoVo [16]
  Ratio IC50: 1.71
Staphylococcus aureus [17]
  MIC: 30.2 µM (≈ 32 µg/mL)
Staphylococcus aureus [18]
  MIC: 30.2 µM (≈ 32 µg/mL)
Staphylococcus aureus [19]
  MIC: 30.2 µM (≈ 32 µg/mL)
Staphylococcus aureus [20]
  MIC: 60.4 µM (≈ 64 µg/mL)
[21]
  MIC: 30.2 µM (≈ 32 µg/mL)
[22]
  MIC: 30.2 µM (≈ 32 µg/mL)
Staphylococcus aureus [23]
  MIC: 60.4 µM (≈ 64 µg/mL)
Staphylococcus aureus [24]
  MIC: 60.4 µM (≈ 64 µg/mL)
Staphylococcus aureus [25]
  MIC: 60.4 µM (≈ 64 µg/mL)
Staphylococcus aureus [26]
  MIC: 242 µM (≈ 256 µg/mL)
Staphylococcus aureus [27]
  MIC: 242 µM (≈ 256 µg/mL)
Staphylococcus aureus [28]
  MIC: 242 µM (≈ 256 µg/mL)
Staphylococcus aureus [29]
  MIC: 242 µM (≈ 256 µg/mL)
Staphylococcus aureus [30]
  MIC: 60.4 µM (≈ 64 µg/mL)
Staphylococcus aureus [31]
  MIC: 121 µM (≈ 128 µg/mL)
Staphylococcus aureus [32]
  MIC: 121 µM (≈ 128 µg/mL)
[33]
  MIC: 30.2 µM (≈ 32 µg/mL)
[34]
  MIC: 30.2 µM (≈ 32 µg/mL)
[35]
  MIC: 30.2 µM (≈ 32 µg/mL)
[36]
  MIC: 30.2 µM (≈ 32 µg/mL)
[37]
  MIC: 60.4 µM (≈ 64 µg/mL)
[38]
  MIC: 60.4 µM (≈ 64 µg/mL)
[39]
  MIC: 60.4 µM (≈ 64 µg/mL)
[40]
  MIC: 30.2 µM (≈ 32 µg/mL)
[41]
  MIC: 121 µM (≈ 128 µg/mL)
[42]
  MIC: 30.2 µM (≈ 32 µg/mL)

## O=C(O)c1cn(C2CC2)c2cc(N3CCNCC3)c(F)cc2c1=O [CIPROFLOXACIN]
Staphylococcus aureus [17]
  MIC: 0.76 µM (≈ 0.252 µg/mL)
Staphylococcus aureus [19]
  MIC: 0.76 µM (≈ 0.252 µg/mL)
[21]
  MIC: 0.76 µM (≈ 0.252 µg/mL)
Staphylococcus aureus [23]
  MIC: 96.7 µM (≈ 32 µg/mL)
Staphylococcus aureus [24]
  MIC: 96.7 µM (≈ 32 µg/mL)
Staphylococcus aureus [26]
  MIC: 96.7 µM (≈ 32 µg/mL)
Staphylococcus aureus [27]
  MIC: 96.7 µM (≈ 32 µg/mL)
Staphylococcus aureus [30]
  MIC: 96.7 µM (≈ 32 µg/mL)
[35]
  MIC: 0.76 µM (≈ 0.252 µg/mL)
[42]
  MIC: 0.76 µM (≈ 0.252 µg/mL)
